Assay results from US12655116B2, “Substituted isophthalic acid diamides” (Bayer Aktiengesellschaft, priority 2020, dated 2026).

Assays:
[1] = test system: ABUTH; test: Pre-emergence herbicidal action against ABUTH; format: in vivo, Abutilon theophrasti; conditions: Abutilon theophrasti, 504 h; for pest or weed control at 80 g/ha: scored visually after 3 weeks vs untreated controls (100% = plants have died, 0% = like control plants); for pest or weed control at 20 g/ha: dosage 20 g/ha, scored visually after 3 weeks vs untreated controls, 100% = plants have died, 0% = like control plants, read-out: Pre-emergence action against ABUTH (herbicidal activity in percent)
Outline: (§1)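 Greenhouse pots of sandy loam held seeds covered with soil, onto which the compound was applied before emergence. An aqueous suspension or emulsion of WP or EC was used at 600 to 800 l/ha with 0.2% wetting agent. Percent damage was judged visually at 3 weeks.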

[2] = test system: STEME; test: Post-emergence herbicidal action against STEME; format: in vivo, Stellaria media; conditions: Stellaria media, 504 h; for pest or weed control at 5 g/ha: dosage 5 g/ha
Outline: (§2)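 A WP or EC formulation diluted in water with 0.2% wetting agent was sprayed at 600 to 800 l/ha onto one-leaf-stage plants grown in sandy loam. About 3 weeks later, action was rated visually in percent, 100% being dead plants.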

[3] = test system: AVEFA; test: Pre-emergence herbicidal action against AVEFA; format: in vivo, Avena fatua; conditions: Avena fatua, 504 h, pre-emergence; for pest or weed control at 20 g/ha: scored visually after 3 weeks, 100% = plants have died, 0% = like control plants
Outline: as §1

[4] = test system: STEME; test: Pre-emergence herbicidal action against STEME; format: in vivo, Stellaria media; conditions: Stellaria media, 504 h; for pest or weed control at 20 g/ha: dosage 20 g/ha; for pest or weed control at 80 g/ha: dosage 80 g/ha
Outline: as §1

[5] = test system: AMARE; test: Pre-emergence herbicidal action against AMARE; format: in vivo, Amaranthus retroflexus; conditions: Amaranthus retroflexus, 504 h, scored visually after 3 weeks vs untreated controls, 100% = plants have died, 0% = like control plants
Outline: as §1

[6] = test system: POLCO; test: Pre-emergence herbicidal action against POLCO; format: in vivo, Polygonum convolvulus; conditions: Fallopia convolvulus, 504 h, dosage 80 g/ha
Outline: as §1

[7] = test system: ECHCG; test: Post-emergence herbicidal action against ECHCG; format: in vivo, Echinochloa crus-galli; conditions: Echinochloa crus-galli, 504 h, dosage 20 g/ha
Outline: as §2

[8] = test system: DIGSA; test: Post-emergence herbicidal action against DIGSA; format: in vivo, Digitaria sanguinalis; conditions: Digitaria sanguinalis, 504 h
Outline: as §2

[9] = test system: PHBPU; test: Pre-emergence herbicidal action against PHBPU; format: in vivo, Pharbitis purpurea; conditions: Ipomoea purpurea, 504 h, dosage 80 g/ha
Outline: as §1

[10] = test system: ECHCG; test: Pre-emergence herbicidal action against ECHCG; format: in vivo, Echinochloa crus-galli; conditions: Echinochloa crus-galli, 504 h
Outline: as §1

[11] = test system: PHBPU; test: Post-emergence herbicidal action against PHBPU; format: in vivo, Pharbitis purpurea; conditions: Ipomoea purpurea, 504 h, dosage 20 g/ha
Outline: as §2

[12] = test system: SETVI; test: Post-emergence herbicidal action against SETVI; format: in vivo, Setaria viridis; conditions: Setaria viridis, 504 h
Outline: as §2

[13] = test system: VIOTR; test: Pre-emergence herbicidal action against VIOTR; format: in vivo, Viola tricolor; conditions: Viola tricolor, 504 h; for pest or weed control at 20 g/ha: dosage 20 g/ha; for pest or weed control at 80 g/ha: dosage 80 g/ha
Outline: as §1

[14] = test system: VIOTR; test: Post-emergence herbicidal action against VIOTR; format: in vivo, Viola tricolor; conditions: Viola tricolor, 504 h
Outline: as §2

[15] = test system: DIGSA; test: Pre-emergence herbicidal action against DIGSA; format: in vivo, Digitaria sanguinalis; conditions: Digitaria sanguinalis, 504 h; for pest or weed control at 20 g/ha: dosage 20 g/ha; for pest or weed control at 80 g/ha: dosage 80 g/ha
Outline: as §1

[16] = test system: ABUTH; test: Post-emergence herbicidal action against ABUTH; format: in vivo, Abutilon theophrasti; conditions: Abutilon theophrasti, 504 h, visual assessment about 3 weeks after treatment vs untreated controls; for pest or weed control at 5 g/ha: dosage 5 g/ha; for pest or weed control at 20 g/ha: dosage 20 g/ha
Outline: as §2

[17] = test system: ALOMY; test: Post-emergence herbicidal action against ALOMY; format: in vivo, Alopecurus myosuroides; conditions: Alopecurus myosuroides, 504 h, dosage 20 g/ha, visual assessment about 3 weeks after treatment vs untreated controls
Outline: as §2

[18] = test system: AMARE; test: Post-emergence herbicidal action against AMARE; format: in vivo, Amaranthus retroflexus; conditions: Amaranthus retroflexus, 504 h, 20 g/ha, visual assessment about 3 weeks after treatment, 100% = plants have died, 0% = like control plants
Outline: as §2

[19] = test system: MATIN; test: Pre-emergence herbicidal action against MATIN; format: in vivo, Matricaria inodora; conditions: Tripleurospermum inodorum, 504 h; for pest or weed control at 20 g/ha: dosage 20 g/ha; for pest or weed control at 80 g/ha: dosage 80 g/ha
Outline: as §1

[20] = test system: LOLRI; test: Pre-emergence herbicidal action against LOLRI; format: in vivo, Lolium rigidum; conditions: Lolium rigidum, 504 h, 80 g/ha
Outline: as §1

[21] = test system: MATIN; test: Post-emergence herbicidal action against MATIN; format: in vivo, Matricaria inodora; conditions: Tripleurospermum inodorum, 504 h; for pest or weed control at 20 g/ha: dosage 20 g/ha
Outline: as §2

[22] = test system: HORMU; test: Pre-emergence herbicidal action against HORMU; format: in vivo, Hordeum murinum; conditions: for pest or weed control at 80 g/ha: Hordeum murinum, 504 h, pre-emergence
Outline: as §1

[23] = test system: ALOMY; test: Pre-emergence herbicidal action against ALOMY; format: in vivo, Alopecurus myosuroides; conditions: Alopecurus myosuroides, 504 h, pre-emergence; for pest or weed control at 80 g/ha: scored visually after 3 weeks vs untreated controls (100% = plants have died, 0% = like control plants); for pest or weed control at 20 g/ha: scored visually after 3 weeks, 100% = plants have died, 0% = like control plants
Outline: as §1

[24] = test system: SETVI; test: Pre-emergence herbicidal action against SETVI; format: in vivo, Setaria viridis; conditions: Setaria viridis, 504 h; for pest or weed control at 80 g/ha: dosage 80 g/ha
Outline: as §1

[25] = test system: VERPE; test: Pre-emergence herbicidal action against VERPE; format: in vivo, Veronica persica; conditions: Veronica persica, 504 h, dosage 80 g/ha
Outline: as §1

[26] = test system: POLCO; test: Post-emergence herbicidal action against POLCO; format: in vivo, Polygonum convolvulus; conditions: Fallopia convolvulus, 504 h, dosage 20 g/ha
Outline: as §2

[27] = test system: AVEFA; test: Post-emergence herbicidal action against AVEFA; format: in vivo, Avena fatua; conditions: Avena fatua, 504 h, 20 g/ha, visual assessment about 3 weeks after treatment, 100% = plants have died, 0% = like control plants
Outline: as §2

Question: For `CCn1nnnc1NC(=O)c1ccc(C(F)F)c(C(=O)NC2CC2)c1Cl` [Example 2-149], which pest or weed control at 80 g/ha [1] is on record?
Answer: 100%

Question: And the pest or weed control at 20 g/ha [1]?
Answer: 100%

Question: What about the pest or weed control at 20 g/ha [2] of the same compound?
Answer: 90%

Question: What about the pest or weed control at 5 g/ha [2] of the same compound?
Answer: 90%

Question: What about the pest or weed control at 80 g/ha [3] of the same compound?
Answer: 100%

Question: What about the pest or weed control at 20 g/ha [3] of the same compound?
Answer: 80%

Question: What about the pest or weed control at 20 g/ha [4] of the same compound?
Answer: 100%

Question: And the pest or weed control at 80 g/ha [4]?
Answer: 100%

Question: And the pest or weed control at 20 g/ha [5]?
Answer: 100%

Question: And the pest or weed control at 80 g/ha [5]?
Answer: 100%

Question: And the pest or weed control at 80 g/ha [6]?
Answer: 100%

Question: What about the pest or weed control at 20 g/ha [7] of the same compound?
Answer: 80%

Question: What about the pest or weed control at 5 g/ha [8] of the same compound?
Answer: 100%

Question: What about the pest or weed control at 20 g/ha [8] of the same compound?
Answer: 100%

Question: And the pest or weed control at 80 g/ha [9]?
Answer: 80%

Question: And the pest or weed control at 80 g/ha [10]?
Answer: 90%

Question: And the pest or weed control at 20 g/ha [11]?
Answer: 90%

Question: And the pest or weed control at 5 g/ha ([12]; dosage 5 g/ha)?
Answer: 90%

Question: And the pest or weed control at 20 g/ha ([12]; dosage 20 g/ha)?
Answer: 100%

Question: And the pest or weed control at 20 g/ha [13]?
Answer: 100%

Question: What about the pest or weed control at 80 g/ha [13] of the same compound?
Answer: 100%

Question: What about the pest or weed control at 5 g/ha [14] of the same compound?
Answer: 100%

Question: What about the pest or weed control at 20 g/ha [14] of the same compound?
Answer: 100%

Question: And the pest or weed control at 20 g/ha [15]?
Answer: 90%

Question: What about the pest or weed control at 80 g/ha [15] of the same compound?
Answer: 100%

Question: And the pest or weed control at 5 g/ha [16]?
Answer: 80%

Question: And the pest or weed control at 20 g/ha [16]?
Answer: 100%

Question: What about the pest or weed control at 20 g/ha [17] of the same compound?
Answer: 80%

Question: What about the pest or weed control at 20 g/ha [18] of the same compound?
Answer: 100%

Question: And the pest or weed control at 20 g/ha [19]?
Answer: 90%

Question: And the pest or weed control at 80 g/ha [19]?
Answer: 100%

Question: And the pest or weed control at 80 g/ha [20]?
Answer: 90%

Question: And the pest or weed control at 5 g/ha ([21]; dosage 5 g/ha)?
Answer: 90%

Question: What about the pest or weed control at 20 g/ha [21] of the same compound?
Answer: 100%

Question: And the pest or weed control at 80 g/ha [22]?
Answer: 90%

Question: And the pest or weed control at 80 g/ha [23]?
Answer: 90%

Question: What about the pest or weed control at 20 g/ha [23] of the same compound?
Answer: 80%

Question: What about the pest or weed control at 80 g/ha [24] of the same compound?
Answer: 100%

Question: And the pest or weed control at 80 g/ha [25]?
Answer: 80%

Question: And the pest or weed control at 20 g/ha [26]?
Answer: 80%

Question: With `CCNC(=O)c1c(C(F)(F)F)ccc(C(=O)Nc2nnnn2CC)c1Cl` [Example 2-130] as the compound, how does the pest or weed control at 80 g/ha [1] read?
Answer: 100%

Question: And the pest or weed control at 20 g/ha [1]?
Answer: 100%

Question: What about the pest or weed control at 20 g/ha [2] of the same compound?
Answer: 80%

Question: And the pest or weed control at 5 g/ha [2]?
Answer: 80%

Question: What about the pest or weed control at 80 g/ha [3] of the same compound?
Answer: 100%

Question: What about the pest or weed control at 20 g/ha [3] of the same compound?
Answer: 90%

Question: What about the pest or weed control at 20 g/ha [4] of the same compound?
Answer: 100%

Question: And the pest or weed control at 80 g/ha [4]?
Answer: 100%

Question: And the pest or weed control at 20 g/ha [5]?
Answer: 100%

Question: And the pest or weed control at 80 g/ha [5]?
Answer: 100%

Question: What about the pest or weed control at 20 g/ha [7] of the same compound?
Answer: 80%

Question: And the pest or weed control at 5 g/ha [8]?
Answer: 80%

Question: And the pest or weed control at 20 g/ha [8]?
Answer: 80%

Question: And the pest or weed control at 20 g/ha ([10]; 20 g/ha)?
Answer: 80%

Question: What about the pest or weed control at 80 g/ha [10] of the same compound?
Answer: 100%

Question: And the pest or weed control at 20 g/ha [13]?
Answer: 100%

Question: What about the pest or weed control at 80 g/ha [13] of the same compound?
Answer: 100%

Question: And the pest or weed control at 5 g/ha [14]?
Answer: 90%

Question: What about the pest or weed control at 20 g/ha [14] of the same compound?
Answer: 100%

Question: And the pest or weed control at 20 g/ha [27]?
Answer: 90%

Question: What about the pest or weed control at 20 g/ha [15] of the same compound?
Answer: 100%

Question: And the pest or weed control at 80 g/ha [15]?
Answer: 100%

Question: And the pest or weed control at 5 g/ha [16]?
Answer: 90%

Question: And the pest or weed control at 20 g/ha [16]?
Answer: 90%

Question: What about the pest or weed control at 20 g/ha [17] of the same compound?
Answer: 80%

Question: And the pest or weed control at 20 g/ha [18]?
Answer: 100%

Question: And the pest or weed control at 20 g/ha [19]?
Answer: 100%

Question: And the pest or weed control at 80 g/ha [19]?
Answer: 100%

Question: And the pest or weed control at 80 g/ha [20]?
Answer: 100%

Question: What about the pest or weed control at 20 g/ha [21] of the same compound?
Answer: 80%

Question: And the “Pre-emergence action against HORMU” value ([22]; 20 g/ha, scored visually after 3 weeks, 100% = plants have died, 0% = like control plants)?
Answer: 90%

Question: What about the pest or weed control at 80 g/ha [22] of the same compound?
Answer: 100%

Question: And the pest or weed control at 80 g/ha [23]?
Answer: 100%

Question: What about the pest or weed control at 20 g/ha [23] of the same compound?
Answer: 90%

Question: What about the pest or weed control at 20 g/ha ([24]; dosage 20 g/ha) of the same compound?
Answer: 90%

Question: And the pest or weed control at 80 g/ha [24]?
Answer: 100%

Question: And the pest or weed control at 80 g/ha [25]?
Answer: 80%

Question: What about the pest or weed control at 20 g/ha [26] of the same compound?
Answer: 80%
